Source: patent US12404244B2, “Pan-KIT kinase inhibitor having quinoline structure and application thereof” (Tarapeutics Science Inc., priority 2018, dated 2025)

How the values were obtained:
TEL-KIT/L576P-BaF3 = test: Proliferation of TEL-KIT/L576P-BaF3 cells (CCK-8); type: cell-based; details: Mus musculus; 72 hours, CCK-8; read-out: GI50 TEL-KIT/L576P-BaF3
Text: (§1) Compounds as provided herein were further evaluated for their inhibitory effects on proliferation of cancer cells by testing their effects on growth of cancer cells. In this example the following cells were used: primary mouse B cells BaF3 (purchased from ATCC), GIST-T1 cells of the human gastrointestinal stromal tumor cell line (expressing wild-type KIT gene) (purchased from Cosmo Bio Co., Ltd. (Japan)). The present lab further constructed and used the following: mouse Tel-Kit-BaF3 (stably expressing KIT wild-type kinase), mouse Tel-Kit/T670I-BaF3 (stably expressing KIT T670I mutant kinase), mouse Tel-Kit/V559A-BaF3 (stably expressing KIT V559A mutant kinase), mouse Tel-Kit/V559D-BaF3 (stably expressing KIT V559D mutant kinase), mouse Tel-Kit/V559G-BaF3 (stably expressing KIT V559G mutant kinase), mouse Tel-Kit/V560D-BaF3 (stably expressing KIT V560D mutant kinase), mouse Tel-Kit/L576P-BaF3 (stably expressing KIT L576P mutant kinase), mouse Tel-Kit/V654A-BaF3 (stably expressing KIT V654A mutant kinase), mouse Tel-Kit/V654A/V559D-BaF3 (stably expressing KIT V654A V559D mutant kinase), mouse Tel-Kit/T670E-BaF3 (stably expressing KIT T670E mutant kinase), mouse Tel-Kit/T670I/V559D-BaF3 (stably expressing KIT T670I V559D mutant kinase), mouse Tel-Kit/S709F-BaF3 (stably expressing KIT S709F mutant kinase), mouse Tel-Kit/D816E-BaF3 (stably expressing KIT D816E mutant kinase), mouse Tel-Kit/D816H-BaF3 (stably expressing KIT D816H mutant kinase), mouse Tel-Kit/D820E-BaF3 (stably expressing KIT D820E mutant kinase), mouse Tel-Kit/D820G-BaF3 (stably expressing KIT D820G mutant kinase), mouse Tel-Kit/D820Y-BaF3 (stably expressing KIT D820Y mutant kinase), mouse Tel-Kit/N822K-BaF3 (stably expressing KIT N822K mutant kinase), mouse Tel-Kit/Y823D-BaF3 (stably expressing KIT Y823D mutant kinase), mouse Tel-Kit/A829P-BaF3 (stably expressing KIT A829P mutant kinase), GIST-T1-T670I cells of the human gastrointestinal stromal tumor cell line (expressing KIT-T670I mutant gene). […]

GIST-T1 = test: Proliferation of GIST-T1 cells (CCK-8); type: cell-based; details: Homo sapiens, GISTT1; 72 hours, CCK-8; read-out: GI50 GIST-T1
Text: as §1
The cells after incubation were detected using CCK-8 (purchased from MedChem Express, Shanghai, China) cell viability assay kit (CCK-8 may be reduced by dehydrogenase in living cells to a highly water-soluble yellow formazan product, and the amount of the resultant formazan is proportional to the number of living cells), the number of living cells were quantified with a microplate reader, and GI50 of the compounds and the control compounds were calculated (the results shown in Table 2 and Table 3).

TEL-KIT/V654A/V559D-BaF3 = test: Proliferation of TEL-KIT/V654A/V559D-BaF3 cells (CCK-8); type: cell-based; details: Mus musculus; 72 hours, CCK-8; read-out: GI50 TEL-KIT/V654A/V559D-BaF3
Text: as §1, with “gene). The above cell lines were constructed by: amplifying respectively the sequences of human KIT and various mutant kinase regions of KIT via PCR, inserting the fragments respectively into MSCV-Puro vectors having a N-terminal TEL fragment and/or a NPM fragment and/or a TPR fragment (purchased from Clontech), transfecting mouse BaF3 cells with the vectors by means of retrovirus to obtain stably transfected cells, removing the growth factor IL-3, and thereby eventually obtaining cell lines that depend on the transferred protein KIT or various mutants of KIT.” for “gene).”

TEL-KIT/D816E-BaF3 = test: Proliferation of TEL-KIT/D816E-BaF3 cells (CCK-8); type: cell-based; details: Mus musculus; 72 hours, CCK-8; read-out: GI50 TEL-KIT/D816E-BaF3
Text: as §1, with “gene). The above cell lines were constructed by: amplifying respectively the sequences of human KIT and various mutant kinase regions of KIT via PCR, inserting the fragments respectively into MSCV-Puro vectors having a N-terminal TEL fragment and/or a NPM fragment and/or a TPR fragment (purchased from Clontech), transfecting mouse BaF3 cells with the vectors by means of retrovirus to obtain stably transfected cells, removing the growth factor IL-3, and thereby eventually obtaining cell lines that depend on the transferred protein KIT or various mutants of KIT.” for “gene).”

TEL-KIT/D820E-BaF3 = test: Proliferation of TEL-KIT/D820E-BaF3 cells (CCK-8); type: cell-based; details: Mus musculus; 72 hours, CCK-8; read-out: GI50 TEL-KIT/D820E-BaF3
Text: as §1, with “gene). The above cell lines were constructed by: amplifying respectively the sequences of human KIT and various mutant kinase regions of KIT via PCR, inserting the fragments respectively into MSCV-Puro vectors having a N-terminal TEL fragment and/or a NPM fragment and/or a TPR fragment (purchased from Clontech), transfecting mouse BaF3 cells with the vectors by means of retrovirus to obtain stably transfected cells, removing the growth factor IL-3, and thereby eventually obtaining cell lines that depend on the transferred protein KIT or various mutants of KIT.” for “gene).”

TEL-KIT/N822K-BaF3 = test: Proliferation of TEL-KIT/N822K-BaF3 cells (CCK-8); type: cell-based; details: Mus musculus; 72 hours, CCK-8; read-out: GI50 TEL-KIT/N822K-BaF3
Text: as §1, with “gene). The above cell lines were constructed by: amplifying respectively the sequences of human KIT and various mutant kinase regions of KIT via PCR, inserting the fragments respectively into MSCV-Puro vectors having a N-terminal TEL fragment and/or a NPM fragment and/or a TPR fragment (purchased from Clontech), transfecting mouse BaF3 cells with the vectors by means of retrovirus to obtain stably transfected cells, removing the growth factor IL-3, and thereby eventually obtaining cell lines that depend on the transferred protein KIT or various mutants of KIT.” for “gene).”

TEL-KIT/T670I-BaF3 = test: Proliferation of TEL-KIT/T670I-BaF3 cells (CCK-8); type: cell-based, mouse; details: Mus musculus; 72 hours, CCK-8; read-out: GI50 TEL-KIT/T670I-BaF3
Text: Compounds as provided herein were further evaluated for their inhibitory effects on proliferation of cancer cells by testing their effects on growth of cancer cells. In this example the following cells were used: primary mouse B cells BaF3 (purchased from ATCC), GIST-T1 cells of the human gastrointestinal stromal tumor cell line (expressing wild-type KIT gene) (purchased from Cosmo Bio Co., Ltd. (Japan)). The present lab further constructed and used the following: mouse Tel-Kit-BaF3 (stably expressing KIT wild-type kinase), mouse Tel-Kit/T670I-BaF3 (stably expressing KIT T670I mutant kinase), mouse Tel-Kit/V559A-BaF3 (stably expressing KIT V559A mutant kinase), mouse Tel-Kit/V559D-BaF3 (stably expressing KIT V559D mutant kinase), mouse Tel-Kit/V559G-BaF3 (stably expressing KIT V559G mutant kinase), mouse Tel-Kit/V560D-BaF3 (stably expressing KIT V560D mutant kinase), mouse Tel-Kit/L576P-BaF3 (stably expressing KIT L576P mutant kinase), mouse Tel-Kit/V654A-BaF3 (stably expressing KIT V654A mutant kinase), mouse Tel-Kit/V654A/V559D-BaF3 (stably expressing KIT V654A V559D mutant kinase), mouse Tel-Kit/T670E-BaF3 (stably expressing KIT T670E mutant kinase), mouse Tel-Kit/T670I/V559D-BaF3 (stably expressing KIT T670I V559D mutant kinase), mouse Tel-Kit/S709F-BaF3 (stably expressing KIT S709F mutant kinase), mouse Tel-Kit/D816E-BaF3 (stably expressing KIT D816E mutant kinase), mouse Tel-Kit/D816H-BaF3 (stably expressing KIT D816H mutant kinase), mouse Tel-Kit/D820E-BaF3 (stably expressing KIT D820E mutant kinase), mouse Tel-Kit/D820G-BaF3 (stably expressing KIT D820G mutant kinase), mouse Tel-Kit/D820Y-BaF3 (stably expressing KIT D820Y mutant kinase), mouse Tel-Kit/N822K-BaF3 (stably expressing KIT N822K mutant kinase), mouse Tel-Kit/Y823D-BaF3 (stably expressing KIT Y823D mutant kinase), mouse Tel-Kit/A829P-BaF3 (stably expressing KIT A829P mutant kinase), GIST-T1-T670I cells of the human gastrointestinal stromal tumor cell line (expressing KIT-T670I mutant gene). The above cell lines were constructed by: amplifying respectively the sequences of human KIT and various mutant kinase regions of KIT via PCR, inserting the fragments respectively into MSCV-Puro vectors having a N-terminal TEL fragment and/or a NPM fragment and/or a TPR fragment (purchased from Clontech), transfecting mouse BaF3 cells with the vectors by means of retrovirus to obtain stably transfected cells, removing the growth factor IL-3, and thereby eventually obtaining cell lines that depend on the transferred protein KIT or various mutants of KIT. The GIST-T1-T670I (expressing C-KIT-T670I mutant gene) cell line was constructed by our laboratory as follows: designing sgRNA that targeted a region around T670 of the KIT gene with CRISPR Design Tool (website: crispr.mit.edu, Zhang Feng Lab), cloning it into pSpCas9(BB)-2A-Puro vector; co-transfecting cells with the resultant vector and a single-stranded oligonucleotide having T670I site mutation that is near to T670, subjecting the resultant to antibiotics screening, followed by dilution, and monocellular culture in a 96-well plate; validating the site T670 of the cells by sequence detection via Sanger sequencing.

GI50 (TEL-KIT/L576P-BaF3): 6 nM
GI50 (TEL-KIT/V654A/V559D-BaF3): 19 nM
GI50 (TEL-KIT/D816E-BaF3): 59 nM
GI50 (TEL-KIT/D820E-BaF3): 93 nM
GI50 (TEL-KIT/N822K-BaF3): 384 nM
GI50 (TEL-KIT/T670I-BaF3): 21 nM
SMILES: CCN(CC)CCNC(=O)c1c(C)[nH]c(/C=C2\C(=O)Nc3ccc(F)cc32)c1C [Sunitinib, reference compound]
GI50 (GIST-T1): 11 nM
